In patent EP0563281B1, “METHOD FOR PROCESSING ELECTRICALLY CONDUCTIVE POLYANILINES IN LEWIS-BASE SOLVENTS” (MONSANTO COMPANY, priority 1990, dated 1992):
Like-named read-outs stand apart in the source and are kept apart here.

Tests used:
[1] = cited from earlier work; for m: dipole moment; for mp: dipole moment of non-solvent
[2] = cited from earlier work
[3] = Hansen's method for solubility parameters and interaction distance r relative to polyaniline base; settings: for r: Table 5, interaction distance to polyaniline base (17.4, 8.5, 10.4)
Source text: When multiple literature source were found with widely differing values, those sets of values were taken which were the closest to those theoretically predicted for the given solvent.

[4] = Solvent test with undoped (neutralized) polyaniline (Example 8); format: physicochemical; settings: polyaniline synthesized as in Example 1, undoped with aqueous sodium carbonate
Method: A series of potential solvents with significant polar and hydrogen bonding contributions were tested with polyaniline which had been synthesized as in Example 1 and then undoped (neutralized) by treatment with an aqueous solution of sodium carbonate.

[5] = Table 5, Hansen parameter of the liquid
[6] = Table 4, Hildebrand (solubility) parameter
[7] = Table 6, second half, Hansen parameter of non-solvent
[8] = Table 6, Hansen parameter of non-solvent
[9] = Table 6, Hildebrand parameter of non-solvent
[10] = Table 4, dielectric constant relative to permittivity of free space
[11] = Table 4, relative sound velocity in paper wetted by the solvent (water = 100), hydrogen bonding capability

Row | SMILES | dd [2, 5] | dh [2, 5] | dp [2, 5] | d [1, 6] | m ([1]; Table 4) | e [1, 10] | other results
1 | CN(C)N [1,1-dimethylhydrazine] |  |  |  |  |  |  | d ([1]; Table 7, Hildebrand Parameter): 19.8 MPa
2 | Cc1ccccn1 [2-picoline] |  |  |  |  |  |  | e ([1]; Table 7, Dielectric Constant): 9.8; d ([1]; Table 7, Hildebrand Parameter): 20.9 MPa
3 | O=C1CCCN1 [2-pyrrolidone] | 19.4 MPa | 11.3 MPa | 17.4 MPa | 28.4 MPa | 7.7 10^-30 Cm |  | r [3]: 99.8; d ([1]; Table 7, Hildebrand Parameter): 28.4 MPa
4 | CCCCc1ccc(N)cc1 [4-Butylaniline] |  |  |  |  |  |  | dh [2, 7]: 6.6 MPa; dp [2, 7]: 9.1 MPa; dd [2, 8]: 16.9 MPa; d [1, 9]: 20.4 MPa
5 | CN(C)C=O [Dimethylformamide] | 17.4 MPa | 11.3 MPa | 13.7 MPa |  | 11.2 10^-30 Cm | 37.0 | gw [1, 11]: 68.0
6 | CNNC [Dimethylhydrazine] | 15.3 MPa | 11.0 MPa | 5.9 MPa | 19.8 MPa |  |  | r [3]: 5.0
7 | CCNc1ccccc1 [N-Ethylaniline] |  |  |  |  |  |  | dh [2, 7]: 7.7 MPa; dp [2, 7]: 10.5 MPa; dd [2, 8]: 17.1 MPa; d [1, 9]: 21.5 MPa
8 | CN1CCCC1=O [N-methyl-2-pyrrolidone] | 16.5 MPa | 13.5 MPa | 10.4 MPa | 23.7 MPa |  | 32.0 | solvent for undoped polyaniline [4]: solvent
9 | Cc1ccccn1 [Picoline] | 18.2 MPa | 6.8 MPa | 7.8 MPa | 20.9 MPa | 6.3 10^-30 Cm | 9.8 | r [3]: 4.0
10 | Nc1ccccc1 [aniline] | 19.4 MPa | 10.0 MPa | 5.1 MPa | 22.6 MPa | 5.0 10^-30 Cm | 6.9 | r [3]: 5.3; gw [1, 11]: 94.0
11 | NCc1ccccc1 [benzylamine] |  |  |  |  |  |  | pKa ([1]; Table 7): 9.3
12 | CCCCN [butylamine] | 13.6 MPa | 8.0 MPa | 8.1 MPa | 18.6 MPa | 4.7 10^-30 Cm | 5.3 | e ([1]; Table 7, Dielectric Constant): 5.3; d ([1]; Table 7, Hildebrand Parameter): 17.7 MPa; pKa ([1]; Table 7): 10.8
13 | CC(C)NC(C)C [diisopropylamine] |  |  |  |  |  |  | dh [2, 7]: 2.0 MPa; dp [2, 7]: 6.2 MPa; dd [2, 8]: 13.8 MPa; predicted interaction distance (r) ([3]; Table 6, second half, Hansen Method): 11.3; d [1, 9]: 15.2 MPa
14 | CCCNCCC [dipropylamine] |  |  |  |  |  |  | dh [2, 7]: 5.8 MPa; dp [2, 7]: 6.2 MPa; dd [2, 8]: 14.0 MPa; d [1, 9]: 16.3 MPa
15 | NCCN [ethylenediamine] | 16.6 MPa | 17.0 MPa | 8.8 MPa |  | 6.6 10^-30 Cm | 12.9 | e ([1]; Table 7, Dielectric Constant): 12.9; pKa ([1]; Table 7): 10.1
16 | CN(C)P(=O)(N(C)C)N(C)C [hexamethylphosporamide] | 18.3 MPa | 11.3 MPa | 8.6 MPa | 23.2 MPa | 17.6 10^-30 Cm | 30.0 | r [3]: 2.0; e ([1]; Table 7, Dielectric Constant): 30.0; d ([1]; Table 7, Hildebrand Parameter): 23.2 MPa
17 | c1c[nH]cn1 [imidazole] |  |  |  |  |  |  | pKa ([1]; Table 7): 7.1
18 | C1COCCN1 [morpholine] | 16.0 MPa | 10.1 MPa | 11.4 MPa | 22.1 MPa | 5.0 10^-30 Cm | 7.3 | r [3]: 4.0; gw [1, 11]: 200.0; e ([1]; Table 7, Dielectric Constant): 7.3; d ([1]; Table 7, Hildebrand Parameter): 22.1 MPa; gw ([1]; Table 7, Hydrogen Bonding): 200.0
19 | C1CCNCC1 [piperidine] |  |  |  |  |  |  | e ([1]; Table 7, Dielectric Constant): 5.8; d ([1]; Table 7, Hildebrand Parameter): 19.3 MPa; gw ([1]; Table 7, Hydrogen Bonding): 89.0
20 | CCCN [propylamine] | 13.9 MPa | 7.2 MPa | 9.3 MPa |  | 4.7 10^-30 Cm | 5.3 | e ([1]; Table 7, Dielectric Constant): 5.3; pKa ([1]; Table 7): 10.8
21 | c1ccncc1 [pyridine] | 17.6 MPa | 7.7 MPa | 10.1 MPa |  | 7.3 10^-30 Cm | 12.3 | gw [1, 11]: 80.0
22 | C1CCNC1 [pyrrolidine] |  |  |  |  | 5.3 10^-30 Cm |  | 
23 | c1ccc2ncccc2c1 [quinoline] | 19.4 MPa | 7.6 MPa | 7.0 MPa | 22.0 MPa | 7.6 10^-30 Cm | 9.0 | 
24 | CCCCN(CCCC)CCCC [tributylamine] |  |  |  |  |  |  | dh [2, 7]: 4.0 MPa; dp [2, 7]: 2.8 MPa; dd [2, 8]: 15.1 MPa; d [1, 9]: 15.9 MPa; mp ([1]; Table 6): 2.3 10^-30 Cm
25 | CCN(CC)CC [triethylamine] |  |  |  |  |  |  | dh [2, 7]: 1.9 MPa; dp [2, 7]: 3.7 MPa; dd [2, 8]: 14.6 MPa; d [1, 9]: 15.3 MPa; mp ([1]; Table 6): 2.2 10^-30 Cm
